Assay results from PubChem BioAssay AID1117350 (Cheminformatics & Chemogenomics Research Group (CCRG), …, 2015).
pIC50: −log10 of the molar value. Several values for one entry are separate records, joined by “and”; a condition that tells them apart may be missing. Equal values may be shown once. Activity calls are given as the source filed them. No rule for the calls is given here.

System: HeLa, chromatin condensation phenotype imaging
Test: HeLa chromatin condensation increase, dose response, imaging, IC50 (AID 1117350)

| Structure (SMILES) | IC50 | pIC50 |
| --- | --- | --- |
| Oc1c(I)cc(I)c2cccnc12 | > 10 µM (inactive) | – |
| CCCSc1ccc2nc(NC(=O)OC)[nH]c2c1 | – | 7.21 |
| Cc1cc(C2CCCCC2)n(O)c(=O)c1 | > 10 µM (inactive) | – |
| CCc1oc2ccccc2c1C(=O)c1cc(Br)c(O)c(Br)c1 | > 10 µM (inactive) | – |
| NC(N)=NN=C(/C=C/c1ccc([N+](=O)[O-])o1)/C=C/c1ccc([N+](=O)[O-])o1 | > 10 µM (inactive) | – |
| O=C(NOCC1CC1)c1ccc(F)c(F)c1Nc1ccc(I)cc1Cl | > 10 µM (inactive) | – |
| CCCCOC(=O)c1ccc(N)cc1 | > 10 µM (inactive) | – |
| COc1cc(-c2ccc(=O)[nH]n2)ccc1OC(F)F | > 10 µM (inactive) | – |
| O=c1[nH]cc(F)c(=O)[nH]1 | > 10 µM (inactive) | – |
| CCOc1ccc2nc3cc(N)ccc3c(N)c2c1 | > 10 µM (inactive) | – |
| Cc1cc(O)c2ccccc2c1O | > 10 µM (inactive) | – |
| O=c1c(-c2ccccc2)c1-c1ccccc1 | > 10 µM (inactive) | – |
| CCCCCCCCCCCCCCCCCCNC(=O)OC1CCN(C(=O)OC[C@H](COC(=O)N(Cc2cccc[n+]2CC)C(=O)c2ccccc2OC)OC)CC1 | > 10 µM (inactive) | – |
| COC(=O)Nc1nc2ccc(S(=O)c3ccccc3)cc2[nH]1 (stereo unspecified) | – | 6.62 |
| O=C(O)CCCc1ccc(N(CCCl)CCCl)cc1 | > 10 µM (inactive) | – |
| CCCCc1ccc2nc(NC(=O)OC)[nH]c2c1 | – | 8.14 |
| Cc1ccc(Nc2nccc(N(C)c3ccc4c(C)n(C)nc4c3)n2)cc1S(N)(=O)=O | > 10 µM (inactive) | – |
| CC[C@@H]([C@H](C)O)n1ncn(-c2ccc(N3CCN(c4ccc(OC[C@@H]5CO[C@@](Cn6cncn6)(c6ccc(F)cc6F)C5)cc4)CC3)cc2)c1=O | > 10 µM (inactive) | – |
| Cc1nc(Nc2ncc(C(=O)Nc3c(C)cccc3Cl)s2)cc(N2CCN(CCO)CC2)n1 | > 10 µM (inactive) | – |
| COc1cc([C@@H]2c3cc4c(cc3[C@H](O)[C@H]3COC(=O)[C@H]23)OCO4)cc(OC)c1OC | – | 7.95 |
| CC(C)=CCNc1ncnc2c1ncn2[C@@H]1O[C@H](CO)[C@@H](O)[C@H]1O | > 10 µM (inactive) | – |
| NC(=NCCCCCCN=C(N)/N=C(\N)Nc1ccc(Cl)cc1)/N=C(\N)Nc1ccc(Cl)cc1 | > 10 µM (inactive) | – |
| CN(C)CCC=C1c2ccccc2CCc2ccccc21 | > 10 µM (inactive) | – |

| Structure (SMILES) | IC50 | pIC50 |
| --- | --- | --- |
| CN(C)c1ccc2nc3ccc(=[N+](C)C)cc-3sc2c1 | > 10 µM (inactive) | – |
| C1CN(P2(N3CC3)=NP(N3CC3)(N3CC3)=NP(N3CC3)(N3CC3)=N2)CCO1 (stereo unspecified) | > 10 µM (inactive) | – |
| CC(CC1c2ccccc2CCc2ccccc21)CN(C)C (stereo unspecified) | > 10 µM (inactive) | – |
| Cc1ccc(CCn2c3c(c4cc(Cl)ccc42)CN(C)CC3)cn1 | > 10 µM (inactive) | – |
| Nc1ccc2cc3ccc(N)cc3nc2c1 | – | 5.61 |
| NCCNc1ccc(NCCN)c2c1C(=O)c1ccncc1C2=O | > 10 µM (inactive) | – |
| CN1CC[C@H](c2c(O)cc(O)c3c(=O)cc(-c4ccccc4Cl)oc23)[C@H](O)C1 | – | 7.09 |
| CCC(C)n1ncn(-c2ccc(N3CCN(c4ccc(OC[C@H]5CO[C@](Cn6cncn6)(c6ccc(Cl)cc6Cl)O5)cc4)CC3)cc2)c1=O (stereo partly specified) | > 10 µM (inactive) | – |
| CCCCCCC[N+](CC)(CC)CCCCc1ccc(Cl)cc1 | > 10 µM (inactive) | – |
| O=C1c2c(O)ccc(O)c2C(=O)c2c(NCCNCCO)ccc(NCCNCCO)c21 | > 10 µM (inactive) | – |
| COc1ccc2cc1Oc1ccc(cc1)C[C@H]1c3c(cc4c(c3Oc3cc5c(cc3OC)CCN(C)[C@@H]5C2)OCO4)CCN1C | > 10 µM (inactive) | – |
| CC(=O)N(O)CCCCCNC(=O)CCC(=O)N(O)CCCCCNC(=O)CCC(=O)N(O)CCCCCN | > 10 µM (inactive) | – |
| CC(C)OC(=O)OCOP(=O)(CO[C@H](C)Cn1cnc2c(N)ncnc21)OCOC(=O)OC(C)C | > 10 µM (inactive) | – |
| COc1cc(NC(C)CCCN)c2ncccc2c1 (stereo unspecified) | > 10 µM (inactive) | – |
| O=c1[nH]c(=O)n([C@H]2C[C@H](O)[C@@H](CO)O2)cc1F | > 10 µM (inactive) | – |
| CC(C)n1c(/C=C/[C@@H](O)C[C@@H](O)CC(=O)O)c(-c2ccc(F)cc2)c2ccccc21 | > 10 µM (inactive) | – |
| CO[C@@]12[C@H](COC(N)=O)C3=C(C(=O)C(C)=C(N)C3=O)N1C[C@@H]1N[C@@H]12 | > 10 µM (inactive) | – |
| Cc1ccccc1C(=O)Nc1ccc(C(=O)N2CCCC(N(C)C)c3ccccc32)cc1 (stereo unspecified) | – | 5.47 |
| C[C@@H]1C[C@@H]([C@H](O)CC2CC(=O)NC(=O)C2)C(=O)[C@@H](C)C1 | > 10 µM (inactive) | – |
| CCCCCCCCCCCCCC[N+](C)(C)C | > 10 µM (inactive) | – |
| Cc1c(C)c2c(c(C)c1O)CCC(C)(COc1ccc(CC3SC(=O)NC3=O)cc1)O2 (stereo unspecified) | > 10 µM (inactive) | – |
| [O-][n+]1ccccc1SSc1cccc[n+]1[O-] | – | 5.65 |
| N[C@@H](Cc1ccc(N(CCCl)CCCl)cc1)C(=O)O | > 10 µM (inactive) | – |

| Structure (SMILES) | IC50 | pIC50 |
| --- | --- | --- |
| Cc1ccc(S(=O)(=O)NC(=O)NN2CC3CCCC3C2)cc1 (stereo unspecified) | > 10 µM (inactive) | – |
| O=C(CCBr)N1CCN(C(=O)CCBr)CC1 | > 10 µM (inactive) | – |
| C[n+]1c2cc(N)ccc2cc2ccc(N)cc21 (tested in a mixture with another compound) | – | 5.66 |
| Clc1ccc(Nc2nnc(Cc3ccncc3)c3ccccc23)cc1 | > 10 µM (inactive) | – |
| CSc1ccc2c(c1)C(N1CCN(C)CC1)Cc1ccccc1S2 (stereo unspecified) | > 10 µM (inactive) | – |
| Cc1nc(N)nc(N)c1-c1ccc(Cl)c(Cl)c1 | > 10 µM (inactive) | – |
| CC(=O)[C@]1(O)Cc2c(O)c3c(c(O)c2[C@@H](O[C@H]2C[C@H](N)[C@H](O)[C@H](C)O2)C1)C(=O)c1ccccc1C3=O | – | 6.18 |
| Cc1cc(=O)c2c(O)c3c(O)cc(=O)c4c3c3c(cc(O)c1c23)C(C)(C)C=4O | > 10 µM (inactive) | – |
| COc1ccc(-c2ccc3cc(C(=O)O)ccc3c2)cc1C12CC3CC(CC(C3)C1)C2 | > 10 µM (inactive) | – |
| O=C1C2CC=CCC2C(=O)N1SC(Cl)(Cl)Cl (stereo unspecified) | 6.14 µM (inactive) | – |
| CCCCC1C(=O)N(c2ccccc2)N(c2ccc(O)cc2)C1=O (stereo unspecified) | > 10 µM (inactive) | – |
| CCCNCC(O)COc1ccccc1C(=O)CCc1ccccc1 (stereo unspecified) | > 10 µM (inactive) | – |
| CN(Cc1cnc2nc(N)nc(N)c2n1)c1ccc(C(=O)N[C@@H](CCC(=O)O)C(=O)O)cc1 | > 10 µM (inactive) | – |
| CCc1oc2ccccc2c1C(=O)c1cc(I)c(O)c(I)c1 | > 10 µM (inactive) | – |
| COc1ccc(Cc2nccc3cc(OC)c(OC)cc23)cc1OC | > 10 µM (inactive) | – |
| CCc1nc(N)nc(N)c1-c1ccc(Cl)cc1 | > 10 µM (inactive) | – |
| CCN1/C(=C/C=C/c2sc3ccccc3[n+]2CC)Sc2ccccc21 | – | 5.35 |
| O=c1[nH]c(=O)n([C@H]2C[C@H](O)[C@@H](CO)O2)cc1I | > 10 µM (inactive) | – |
| CN(C)/N=N/c1nc[nH]c1C(N)=O | > 10 µM (inactive) | – |
| Nc1nc(F)nc2c1ncn2[C@@H]1O[C@H](CO)[C@@H](O)[C@@H]1O | > 10 µM (inactive) | – |
| CC(C)=CCOc1ccc(/C=C/C(=O)c2ccc(OCC=C(C)C)cc2OCC(=O)O)cc1 | > 10 µM (inactive) | – |
| CCC(C)(C)C(=O)O[C@H]1C[C@@H](C)C=C2C=C[C@H](C)[C@H](CC[C@@H]3C[C@@H](O)CC(=O)O3)[C@H]21 | > 10 µM (inactive) | – |
| Cc1cc(CC(C)CC(C)(C)C)n(O)c(=O)c1 (stereo unspecified) | > 10 µM (inactive) | – |

| Structure (SMILES) | IC50 | pIC50 |
| --- | --- | --- |
| CC[C@]1(O)C[C@H]2CN(CCc3c([nH]c4ccccc34)[C@@](C(=O)OC)(c3cc4c(cc3OC)N(C=O)[C@H]3[C@@](O)(C(=O)OC)[C@H](OC(C)=O)[C@]5(CC)C=CCN6CC[C@]43[C@@H]65)C2)C1 | – | 8.21 |
| CC(C)C[C@H](NC(=O)[C@H](CCc1ccccc1)NC(=O)CN1CCOCC1)C(=O)N[C@@H](Cc1ccccc1)C(=O)N[C@@H](CC(C)C)C(=O)[C@@]1(C)CO1 | > 10 µM (inactive) | – |
| CC[C@H]1CN2CCc3cc(OC)c(OC)cc3[C@@H]2C[C@@H]1C[C@H]1NCCc2cc(OC)c(OC)cc21 | – | 6.02 |
| C[C@]12CC[C@@H]3c4ccc(O)cc4CC[C@H]3[C@@H]1CC[C@@H]2OC(=O)CCC1CCCC1 | > 10 µM (inactive) | – |
| O=C(Nc1ccc(Br)cc1)c1cc(Br)cc(Br)c1O | > 10 µM (inactive) | – |
| COc1ccc2cc3[n+](cc2c1OC)CCc1cc2c(cc1-3)OCO2 | > 10 µM (inactive) | – |
| O[C@@H](CNC[C@H](O)[C@H]1CCc2cc(F)ccc2O1)[C@@H]1CCc2cc(F)ccc2O1 | > 10 µM (inactive) | – |
| CC(=O)Oc1ccccc1C(=O)Nc1ncc([N+](=O)[O-])s1 | > 10 µM (inactive) | – |
| CC[C@]1(O)C[C@@H]2CN(CCc3c([nH]c4ccccc34)[C@@](C(=O)OC)(c3cc4c(cc3OC)N(C)[C@H]3[C@@](O)(C(=O)OC)[C@H](OC(C)=O)[C@]5(CC)C=CCN6CC[C@]43[C@@H]65)C2)C1 | – | 8.34 and 8.49 |
| O=c1[nH]c(=O)n([C@H]2C[C@H](O)[C@@H](CO)O2)cc1Br | > 10 µM (inactive) | – |
| CC(C)(C)C1CCC(CC2=C(O)c3ccccc3C(=O)C2=O)CC1 (stereo unspecified) | > 10 µM (inactive) | – |
| CCN(CC)CCOc1ccc(/C(=C(\Cl)c2ccccc2)c2ccccc2)cc1 | > 10 µM (inactive) | – |
| O=C(Nc1ccc([N+](=O)[O-])cc1Cl)c1cc(Cl)ccc1O | > 10 µM (inactive) | – |
| CCCCCCCCCCCCCCCC[n+]1ccccc1 | – | 6.29 |
| COc1cccc2c1C(=O)c1c(O)c3c(c(O)c1C2=O)C[C@@](O)(C(=O)CO)C[C@@H]3O[C@H]1C[C@H](N)[C@H](O[C@@H]2CCCCO2)[C@H](C)O1 | > 10 µM (inactive) | – |
| COc1cccc2c1C(=O)c1c(O)c3c(c(O)c1C2=O)C[C@@](O)(C(=O)CO)CC3OC1CC(N2CCOC(OC)C2)C(O)C(C)O1 (stereo partly specified) | – | 7.93 |
| CCN(CC)CCCC(C)Nc1c2ccc(Cl)cc2nc2ccc(OC)cc12 (stereo unspecified) | 8.58 µM (inactive) | – |
| C[C@@H](O[C@H]1OCCN(Cc2n[nH]c(=O)[nH]2)[C@H]1c1ccc(F)cc1)c1cc(C(F)(F)F)cc(C(F)(F)F)c1 | > 10 µM (inactive) | – |
| COC(=O)Nc1nc2ccc(C(=O)C3CC3)cc2[nH]1 | – | 6.40 |
| Oc1ccc([C@H]2CNCc3c2ccc(O)c3O)cc1O | > 10 µM (inactive) | – |
| OC[C@H]1O[C@@H](n2cnc3c(=S)nc[nH]c32)[C@H](O)[C@@H]1O | > 10 µM (inactive) | – |
| CCN(CCCCOC(=O)c1ccc(OC)c(OC)c1)C(C)Cc1ccc(OC)cc1 (stereo unspecified) | > 10 µM (inactive) | – |
